*1 amine or outer side, *2 acyl side, *3 side chain or, on linkers, in order; H or OH if unused. Where a SMILES comes first, the peptide text is derived from it. Side-chain parts run from the residue outwards. The star is where a group is joined. C18 diacid = O=C(O)CCCCCCCCCCCCCCCCC(=O)*; γGlu = O=C(O)[C@H](CCC(=O)[*:2])N[*:1]; Isovaleryl = CC(C)CC(=O)*; AEEA = NCCOCCOCC(=O)O
The compounds below were run against T1, Human Neuropeptide Y2 Receptor (Homo sapiens, UniProt P49146) (assay: Radioligand binding competition assay (RLB)). Settings: Table 3; human 125I-PYY (1-36) 0.02 nM, Y2 receptor membranes; read-out: Ki.
T1 construct: purchased CHEMICON HTS066M
T1 sequence (P49146 1-381): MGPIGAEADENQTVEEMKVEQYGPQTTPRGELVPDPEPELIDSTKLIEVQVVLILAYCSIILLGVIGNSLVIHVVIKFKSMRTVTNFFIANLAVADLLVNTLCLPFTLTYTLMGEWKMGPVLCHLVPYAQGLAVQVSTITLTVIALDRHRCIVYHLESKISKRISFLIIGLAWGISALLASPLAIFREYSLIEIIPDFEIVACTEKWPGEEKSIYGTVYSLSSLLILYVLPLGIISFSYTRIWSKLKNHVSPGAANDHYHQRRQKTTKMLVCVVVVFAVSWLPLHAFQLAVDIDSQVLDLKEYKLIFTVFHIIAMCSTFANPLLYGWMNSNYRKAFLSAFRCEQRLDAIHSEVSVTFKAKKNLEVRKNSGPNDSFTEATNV
In short: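 Membranes from cells expressing human Y2 receptor (0.5 μg protein/well) were incubated with radioligand and serially diluted peptides in 50 mM HEPES, 5 mM MgCl2, 1 mM CaCl2, 0.2% ovalbumin, pH 7.4, for 2 h at room temperature with shaking. Bound radioactivity was collected by filtration and counted; IC50 from sigmoidal nonlinear regression.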

Row | Ki [nM] | Structure (SMILES)
1 | 2.34 | CC(C)CC(=O)N[C@@H](C)C(=O)N1CCC[C@H]1C(=O)N[C@@H](CCC(=O)O)C(=O)N[C@@H](CCCCNC(=O)COCCOCCNC(=O)COCCOCCNC(=O)CC[C@H](NC(=O)CCCCCCCCCCCCCCCCC(=O)O)C(=O)O)C(=O)N1CCC[C@H]1C(=O)N[C@@H](CCC(=O)O)C(=O)N[C@@H](CCC(=O)O)C(=O)N[C@@H](CCC(=O)O)C(=O)N[C@@H](C)C(=O)N[C@@H](CO)C(=O)N1CCC[C@H]1C(=O)N[C@@H](CCC(=O)O)C(=O)N[C@@H](CCC(=O)O)C(=O)N[C@@H](CC(C)C)C(=O)N[C@@H](CCC(N)=O)C(=O)N[C@@H](CCCNC(=N)N)C(=O)N[C@@H](Cc1ccc(O)cc1)C(=O)N[C@@H](Cc1ccc(O)cc1)C(=O)N[C@H](C(=O)N[C@@H](C)C(=O)N[C@@H](CC(C)C)C(=O)N[C@@H](CCCNC(=N)N)C(=O)N[C@@H](Cc1c[nH]cn1)C(=O)N[C@@H](Cc1ccc(O)cc1)C(=O)N[C@@H](Cc1ccc(O)cc1)C(=O)N[C@@H](CC(N)=O)C(=O)N[C@@H](Cc1c[nH]c2ccccc12)C(=O)N[C@@H](CC(C)C)C(=O)N[C@H](C(=O)N[C@@H](CCCNC(=N)N)C(=O)N[C@@H](CCC(N)=O)C(=O)N[C@@H](CCCNC(=N)N)C(=O)N[C@@H](Cc1ccc(O)cc1)C(N)=O)[C@@H](C)O)C(C)C [Compound 169, N{alpha-4}-(3-methylbutanoyl)-N{epsilon-7}-[2-(2-{2-[2-(2-{2-[(4S)-4-carboxy-4-(17-carboxyheptadecanamido)butanamido]ethoxy}ethoxy)acetamido]ethoxy}ethoxy)acetamido]-[4A,7K,9E,11E,18Q,22V,23A,28Y,30W,31L]hPYY (4-36)]
2 | 12.3 | CC(C)CC(=O)N[C@@H](C)C(=O)N1CCC[C@H]1C(=O)N[C@@H](CCC(=O)O)C(=O)N[C@@H](CCCCNC(=O)COCCOCCNC(=O)COCCOCCNC(=O)CC[C@H](NC(=O)CCCCCCCCCCCCCCCCC(=O)O)C(=O)O)C(=O)N1CCC[C@H]1C(=O)N[C@@H](CCC(=O)O)C(=O)N[C@@H](CCC(=O)O)C(=O)N[C@@H](CCC(=O)O)C(=O)N[C@@H](C)C(=O)N[C@@H](CO)C(=O)N1CCC[C@H]1C(=O)N[C@@H](CCC(=O)O)C(=O)N[C@@H](CCC(=O)O)C(=O)N[C@@H](CC(C)C)C(=O)N[C@@H](CCC(=O)O)C(=O)N[C@@H](CCC(N)=O)C(=O)N[C@@H](Cc1ccc(O)cc1)C(=O)N[C@@H](Cc1ccc(O)cc1)C(=O)N[C@H](C(=O)N[C@@H](CO)C(=O)N[C@@H](CC(C)C)C(=O)N[C@@H](CCCNC(=N)N)C(=O)N[C@@H](Cc1c[nH]cn1)C(=O)N[C@@H](Cc1ccc(O)cc1)C(=O)N[C@@H](Cc1ccc(O)cc1)C(=O)N[C@@H](CC(N)=O)C(=O)N[C@@H](Cc1c[nH]c2ccccc12)C(=O)N[C@@H](CC(C)C)C(=O)N[C@H](C(=O)N[C@@H](CCCNC(=N)N)C(=O)N[C@@H](CCC(N)=O)C(=O)N[C@@H](CCCNC(=N)N)C(=O)N[C@@H](Cc1ccc(O)cc1)C(N)=O)[C@@H](C)O)C(C)C [Compound 170, N{alpha-4}-(3-methylbutanoyl)-N{epsilon-7}-[2-(2-{2-[2-(2-{2-[(4S)-4-carboxy-4-(17-carboxyheptadecanamido)butanamido]ethoxy}ethoxy)acetamido]ethoxy}ethoxy)acetamido]-[4A,7K,9E,11E,18E,19Q,22V,28Y,30W,31L]hPYY (4-36)] (Isovaleryl-APEK([AEEA-AEEA-γGlu-C18 diacid])PEEEASPEELEQYYVSLRHYYNWLTRQRY-NH2)
3 | 2.55 | CC(C)CC(=O)N[C@@H](C)C(=O)N1CCC[C@H]1C(=O)N[C@@H](CCC(=O)O)C(=O)N[C@@H](CCCCNC(=O)COCCOCCNC(=O)COCCOCCNC(=O)CC[C@H](NC(=O)CCCCCCCCCCCCCCCCC(=O)O)C(=O)O)C(=O)N1CCC[C@H]1C(=O)N[C@@H](CCC(=O)O)C(=O)N[C@@H](CCC(=O)O)C(=O)N[C@@H](CC(=O)O)C(=O)N[C@@H](CO)C(=O)N[C@@H](CO)C(=O)N1CCC[C@H]1C(=O)N[C@@H](CCC(=O)O)C(=O)N[C@@H](CCC(=O)O)C(=O)N[C@@H](CC(C)C)C(=O)N[C@@H](CCC(N)=O)C(=O)N[C@@H](CCCNC(=N)N)C(=O)N[C@@H](Cc1ccc(O)cc1)C(=O)N[C@@H](Cc1ccc(O)cc1)C(=O)N[C@H](C(=O)N[C@@H](CCC(=O)O)C(=O)N[C@@H](CC(C)C)C(=O)N[C@@H](CCCNC(=N)N)C(=O)N[C@@H](Cc1c[nH]cn1)C(=O)N[C@@H](Cc1ccc(O)cc1)C(=O)N[C@@H](Cc1ccc(O)cc1)C(=O)N[C@@H](CC(N)=O)C(=O)N[C@@H](Cc1c[nH]c2ccccc12)C(=O)N[C@@H](CC(C)C)C(=O)N[C@H](C(=O)N[C@@H](CCCNC(=N)N)C(=O)N[C@@H](CCC(N)=O)C(=O)N[C@@H](CCCNC(=N)N)C(=O)N[C@@H](Cc1ccc(O)cc1)C(N)=O)[C@@H](C)O)C(C)C [Compound 177, N{alpha-4}-(3-methylbutanoyl)-N{epsilon-7}-[2-(2-{2-[2-(2-{2-[(4S)-4-carboxy-4-(17-carboxyheptadecanamido)butanamido]ethoxy}ethoxy)acetamido]ethoxy}ethoxy)acetamido]-[4A,7K,9E,12S,18Q,22V,23E,28Y,30W,31L]hPYY (4-36)]
4 | 2.05 | CC(C)CC(=O)N[C@@H](C)C(=O)N1CCC[C@H]1C(=O)N[C@@H](CCC(=O)O)C(=O)N[C@@H](CCCCNC(=O)COCCOCCNC(=O)COCCOCCNC(=O)CC[C@H](NC(=O)CCCCCCCCCCCCCCCCC(=O)O)C(=O)O)C(=O)N1CCC[C@H]1C(=O)N[C@@H](CCC(=O)O)C(=O)N[C@@H](CCC(=O)O)C(=O)N[C@@H](CC(=O)O)C(=O)N[C@@H](C)C(=O)N[C@H](C(=O)N1CCC[C@H]1C(=O)N[C@@H](CCC(=O)O)C(=O)N[C@@H](CCC(=O)O)C(=O)N[C@H](C(=O)N[C@@H](CCC(=O)O)C(=O)N[C@@H](CCCNC(=N)N)C(=O)N[C@@H](Cc1ccc(O)cc1)C(=O)N[C@@H](Cc1ccc(O)cc1)C(=O)N[C@H](C(=O)N[C@@H](CO)C(=O)N[C@@H](CC(C)C)C(=O)N[C@@H](CCCNC(=N)N)C(=O)N[C@@H](Cc1c[nH]cn1)C(=O)N[C@@H](Cc1ccc(O)cc1)C(=O)N[C@@H](Cc1ccc(O)cc1)C(=O)N[C@@H](CC(N)=O)C(=O)N[C@@H](Cc1c[nH]c2ccccc12)C(=O)N[C@@H](CC(C)C)C(=O)N[C@H](C(=O)N[C@@H](CCCNC(=N)N)C(=O)N[C@@H](CCC(N)=O)C(=O)N[C@@H](CCCNC(=N)N)C(=O)N[C@@H](Cc1ccc(O)cc1)C(N)=O)[C@@H](C)O)C(C)C)[C@@H](C)O)[C@@H](C)O [Compound 178, N{alpha-4}-(3-methylbutanoyl)-N{epsilon-7}-[2-(2-{2-[2-(2-{2-[(4S)-4-carboxy-4-(17-carboxyheptadecanamido)butanamido]ethoxy}ethoxy)acetamido]ethoxy}ethoxy)acetamido]-[4A,7K,9E,13T,17T,18E,22V,28Y,30W,31L]hPYY (4-36)] (Isovaleryl-APEK([AEEA-AEEA-γGlu-C18 diacid])PEEDATPEETERYYVSLRHYYNWLTRQRY-NH2)

From US12559529B2, “NPY2 receptor agonists” (Boehringer Ingelheim International GmbH, priority 2019, dated 2026)
